In series [1] the test system is oxaliplatin-induced thermal hyperalgesia. Briefly: 7-day treatment of established OIPN, cold plate latency. It is filed as in vivo, male Sprague Dawley rats. To be noted: 7 days dosing, vehicle close to HBL by Day 14. How it is done:
Male Sprague Dawley rats (150–210 g) were housed in groups of 4 in intra-ventilated Perspex home cages. Humidity, temperature (21 ± 1 °C), and lighting (light-dark cycle of 12:12 hours) were controlled and maintained in the home cages, with food and water available ad libitum. Rats acclimatised to the home cages for at least 1 week. All experiments were carried out according to the Animals (Scientific Procedures) Act, 1986 (U.K. Government Home Office). The study was performed under the Home Office project licence number PP0847012. OIPN was established with a single dose of OXA (10 mg/kg, IP). […] Body weight was monitored throughout the study, and terminal plasma and whole brain samples were taken for bioanalysis. Thermal hyperalgesia was assessed using a cold plate (Bioseb, France) set at a fixed temperature of 15 °C. Latency to the first escape behaviour from the plate was measured indicating discomfort to the thermal stimulation. Escape behaviours typically consist of paw licking, jumping, or withdrawal. The maximal threshold of latency was set at 150 seconds. To acquire baseline readings, pain behaviour was assessed on 3 consecutive days (Days −3, −2, −1). The mean of Day −2 and Day −1 was considered the healthy baseline (HBL) prior to OIPN induction. […] NPB expressed as a percentage change from HBL was calculated as follows (HBL-NPB)/HBL*100. […]

The target in series [2] is FABP3 (Homo sapiens, UniProt P05413). Briefly: Fluorescence displacement binding assay (DAUDA probe). The method, then: Purified FABPs were incubated with 11-(dansylamino)undecanoic acid (DAUDA) (FABP3, FABP5) or 8-anilino-1-naphthalenesulfonic acid (ANS) (FABP7) in the presence or absence of FABP inhibitors (.01–200 μM) in the binding assay buffer. FABP4 binding was assessed using a commercially available kit (Cayman Chemical, Ann Arbor). In all cases, arachidonic acid (10 μM) was included to account for maximal probe displacement. Loss of fluorescence intensity was monitored with an F5 Filtermax Multi-Mode Microplate Reader (Molecular Devices, Sunnyvale) using the following excitation and emission wavelengths (DAUDA: ex./em.= 360/535 nm; ANS: ex./em. = 360/465 nm). Following background subtraction, the fluorescence intensity values were normalised and analyzed via a one-site binding model using the GraphPadPrism (version 9.2). Ki values were determined using the following equation: Ki= IC50/(1 + ([Probe]/Kd).
Chain of FABP3 (P05413 whole entry, species assumed): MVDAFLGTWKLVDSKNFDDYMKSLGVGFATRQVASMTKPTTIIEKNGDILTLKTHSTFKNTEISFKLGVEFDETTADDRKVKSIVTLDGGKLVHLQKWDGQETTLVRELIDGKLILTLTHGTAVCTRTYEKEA

The subject of series [3] is oxaliplatin-induced mechanical allodynia. Briefly: Acute dosing in established OIPN, von-Frey paw withdrawal threshold. It is filed as in vivo, male Sprague Dawley rats. As to conditions: for PWT response versus vehicle: 2 hours. The method, then: OXA (Tocris Bioscience) was dissolved in 5% dextrose (Sigma-Aldrich) and administered intraperitoneally (IP) at a volume of 6 mL/kg. […] AM251 (CB1 antagonist; Tocris Bioscience), AM630 (CB2 antagonist; Tocris Bioscience), GW6471 (PPARα antagonist; Tocris Bioscience), and AMG9810 (TRPV1 antagonist; Tocris Bioscience) were dissolved in saline with 4% dimethyl sulfoxide and delivered IP. Male Sprague Dawley rats (150–210 g) were housed in groups of 4 in intra-ventilated Perspex home cages. Humidity, temperature (21 ± 1 °C), and lighting (light-dark cycle of 12:12 hours) were controlled and maintained in the home cages, with food and water available ad libitum. Rats acclimatised to the home cages for at least 1 week. All experiments were carried out according to the Animals (Scientific Procedures) Act, 1986 (U.K. Government Home Office). The study was performed under the Home Office project licence number PP0847012. OIPN was established with a single dose of OXA (10 mg/kg, IP). […] Tactile allodynia (primary outcome measure) was assessed using paw withdrawal threshold (PWT), a measure of pain sensitivity. PWT was evaluated using calibrated von-Frey monofilaments (Touch-Test Sensory Evaluator; Scientific Marketing Associates) applied to the plantar surface of the left hind paw. PWT was determined by increasing and decreasing stimulus intensity and estimated using Dixon’s up-down method.[38],[39] To acquire baseline readings, pain behaviour was assessed on 3 consecutive days (Days −3, −2, −1). The mean of Day −2 and Day −1 was considered the healthy baseline (HBL) prior to OIPN induction. On Days 5 and 6 after OXA injection, thresholds were reassessed. The mean of Days 5 and 6 was considered the neuropathic baseline (NPB). Animals were then ranked and randomised (based on a Latin square design) to treatment groups according to the percentage change of the mean thresholds observed in the NPB compared to the HBL. NPB expressed as a percentage change from HBL was calculated as follows (HBL-NPB)/HBL*100. All behavioural assessment was done by an experimenter blinded to the identity of the treatment. Separate people were responsible for dosing and assessment/data analysis.

The nature of series [4]: Oral bioavailability / pharmacokinetics in rats. It is filed as in vivo. As to conditions: Sprague Dawley, rat, plasma, male rats. The method, then:
Following intravenous and oral administration, blood samples (ca .2 mL) were collected from the jugular vein. For IV group, blood samples were collected at .083, .25, .5, 1, 2, 4, 6, 8, 24 hours post-dose. For PO group, blood samples were collected at .25, .5, 1, 2, 4, 6, 8, 24 hours post-dose. Blood samples were collected into tubes containing the anticoagulant K2EDTA. Plasma samples were prepared by centrifugation and dispensed into 1.5 mL matrix tubes and stored in a freezer (−75 ± 1°C) prior to analysis.

Structures are written as SMILES.

For orientation: Ki means a measure of affinity in units of concentration, obtained from inhibition or displacement. High values mean lower affinity, low ones higher affinity. For orientation: half-life means how long it takes for the measured level to halve. One may read the Tmax as the time at which the peak concentration occurs. Turning to `COc1ccccc1[C@@H]1[C@H](C(=O)O)[C@@H](c2ccccc2OC)[C@H]1C(=O)OC1Cc2ccccc2C1` [ART26.12, (+)–3-Indan-2-yloxycarbonyl-2,4-bis(2-methoxyphenyl)cyclobutanecarboxylic acid], the cold plate latency result in series [1] was “no effect on cold plate latency”. For the same molecule, in series [2], the affinity corresponds to a Ki of 71.3 ± 2.4 µM. Further, the “PWT response versus vehicle” value in series [3] (100 mg/kg PO co-administered with AM630 (CB2 antagonist) 3 mg/kg IP), in series [3] (100 mg/kg PO co-administered with AMG9810 (TRPV1 antagonist) 3 mg/kg IP) and in series [3] (100 mg/kg PO co-administered with GW6471 (PPARα antagonist) 4 mg/kg IP) was “not significantly different to vehicle” throughout. Further, in series [3] (100 mg/kg PO co-treated with AM251 (CB1 antagonist) 3 mg/kg IP, P < .05), the “PWT compared to ART26.12 alone” value was “significantly reduced PWT”. Moreover, the “duration of acute attenuation of mechanical allodynia” value in series [3] (established OIPN, acute oral dosing) was “up to 8 hours”. Moreover, in series [3] (established OIPN, 50 mg/kg (P < .05), 75 mg/kg (P < .05), 100 mg/kg (P < .001) PO, 30 minutes and 2 hours post-dose), the “PWT compared to vehicle” value is listed as “significantly increased PWT”. For the same molecule, the “PWT time course after single dose” value in series [3] (established OIPN, 100 mg/kg PO, at 30 minutes, 2, 3, 4 and 8 hours) was “significantly increased”. Also, in series [3] (mechanism study, 100 mg/kg PO, 30 minutes or 2 hours, P < .01), the “PWT compared to vehicle-alone” value is “significantly increased PWT”. Besides, the clearance in series [4] (IV 2 mg/kg) stood at 14 mL/min/kg. For the same molecule, the values for the half-life in series [4] (IV 2 mg/kg) and in series [4] (PO 300 mg/kg) were 156 min and 228 min, respectively. Also, in series [4] (IV 2 mg/kg, read-out: volume of distribution), the Vd turned out to be 1.3 L/kg. The time of peak concentration (Tmax) in series [4] (PO 10 mg/kg) is about 0.5 h; in series [4] (PO 300 mg/kg), about 6.6 h. Further, the values for the bioavailability in series [4] (PO 300 mg/kg) and in series [4] (single oral dose 10 mg/kg) were 163% and 73%, respectively.

Values taken from article PMC12993615 (The journal of pain, 2024).
